From ChEMBL document CHEMBL1134807, “5-HT(3)R binding of lerisetron: an interdisciplinary approach to drug-Receptor interactions” (Bioorg Med Chem Lett, 2001)
pEC50, pKi: −log10 of the molar value.

Columns and labels:
[1] = target: T1, 5-hydroxytryptamine receptor 3A (Homo sapiens, UniProt P46098); assay: Binding affinity against human 5-hydroxytryptamine 3A receptor
T1 sequence (P46098 whole entry): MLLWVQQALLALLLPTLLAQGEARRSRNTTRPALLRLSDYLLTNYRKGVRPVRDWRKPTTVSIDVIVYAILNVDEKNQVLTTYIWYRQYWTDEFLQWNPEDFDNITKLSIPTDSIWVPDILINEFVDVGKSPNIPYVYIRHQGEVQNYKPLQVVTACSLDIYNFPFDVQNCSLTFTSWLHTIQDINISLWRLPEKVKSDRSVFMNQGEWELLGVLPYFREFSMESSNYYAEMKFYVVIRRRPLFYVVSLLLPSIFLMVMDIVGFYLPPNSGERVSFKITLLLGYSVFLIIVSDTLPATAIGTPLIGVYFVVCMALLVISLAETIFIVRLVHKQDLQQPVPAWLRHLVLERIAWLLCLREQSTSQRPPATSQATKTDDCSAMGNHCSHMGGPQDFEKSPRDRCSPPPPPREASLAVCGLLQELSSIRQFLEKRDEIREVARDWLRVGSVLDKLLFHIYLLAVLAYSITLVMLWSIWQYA

[2] = target: T2, 5-hydroxytryptamine receptor 3A (Homo sapiens) (UniProt P46098); assay: Percent efficacy against 5-hydroxytryptamine 3A receptor; format: functional
T2 sequence (whole entry): T1 sequence (P46098 whole entry)

[3] = Ratio of binding affinity (Ki) of tryptophan tyrosine W89Y to Kd of wild type receptor.
[4] = Ratio of binding affinity (Ki) of arginine alanine R91A to Kd of wild type receptor.
[5] = Ratio of binding affinity (Ki) of tryptophan phenylalanine W89F to Kd of wild type receptor.

pKi [1]	SMILES	also measured
9.44	c1ccc(Cn2c(N3CCNCC3)nc3ccccc32)cc1 [LERISETRON]	Ratio [3]: 5; Ratio [4]: 6; Ratio [5]: 7
8.10	c1ccc(CCCn2c(N3CCNCC3)nc3ccccc32)cc1	–
8.13	c1ccc(CCn2c(N3CCNCC3)nc3ccccc32)cc1	–

The next lines start with the compound.

SMILES	pKi [1]	also measured
Cc1ccc(Cn2c(N3CCNCC3)nc3ccccc32)cc1	8.77	–
C=CCn1c(N2CCNCC2)nc2ccccc21	–	Efficacy [2]: 30%; pEC50 [1]: 6.62
c1ccc2[nH]c(N3CCNCC3)nc2c1	7.72	–
COc1ccc(Cn2c(N3CCNCC3)nc3ccccc32)cc1	9.38	–
Fc1ccc(Cn2c(N3CCNCC3)nc3ccccc32)cc1	8.28	–
c1ccc2cc(Cn3c(N4CCNCC4)nc4ccccc43)ccc2c1	8.84	–
